According to publication PMC7079210 (Chembiochem, 2019):

Target: PhdB (phenylacetate decarboxylase), sewage culture version (uncultured Acidobacteriota bacterium, UniProt A0A2P1UAH0)
Assay type: biochemical

Chain of PhdB (phenylacetate decarboxylase), sewage culture version (A0A2P1UAH0 1-839): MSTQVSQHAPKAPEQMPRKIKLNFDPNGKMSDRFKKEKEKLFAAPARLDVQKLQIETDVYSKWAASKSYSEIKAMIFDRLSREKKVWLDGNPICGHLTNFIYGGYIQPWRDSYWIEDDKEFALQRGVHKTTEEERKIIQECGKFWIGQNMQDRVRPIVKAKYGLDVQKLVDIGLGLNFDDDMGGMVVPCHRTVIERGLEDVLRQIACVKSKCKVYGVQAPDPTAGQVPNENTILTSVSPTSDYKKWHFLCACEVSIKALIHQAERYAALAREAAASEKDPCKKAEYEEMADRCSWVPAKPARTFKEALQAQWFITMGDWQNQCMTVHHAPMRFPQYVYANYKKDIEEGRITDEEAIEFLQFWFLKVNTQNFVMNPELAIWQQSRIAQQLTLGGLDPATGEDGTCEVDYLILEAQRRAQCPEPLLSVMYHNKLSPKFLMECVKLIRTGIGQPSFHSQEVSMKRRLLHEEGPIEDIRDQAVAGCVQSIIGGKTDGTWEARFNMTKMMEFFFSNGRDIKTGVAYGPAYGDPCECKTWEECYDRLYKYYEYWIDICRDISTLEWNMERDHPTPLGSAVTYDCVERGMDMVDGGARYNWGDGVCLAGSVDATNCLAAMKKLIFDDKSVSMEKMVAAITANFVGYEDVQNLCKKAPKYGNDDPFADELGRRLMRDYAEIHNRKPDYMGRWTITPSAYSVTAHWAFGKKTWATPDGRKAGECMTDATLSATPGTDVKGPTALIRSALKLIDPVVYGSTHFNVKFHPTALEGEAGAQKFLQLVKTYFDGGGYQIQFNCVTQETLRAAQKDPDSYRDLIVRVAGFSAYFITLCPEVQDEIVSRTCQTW

## O=C(O)C(F)(F)c1ccccc1 [α,α‐difluorophenylacetate]
  Ki: 370 ± 30 µM
